Where a SMILES comes first, the peptide text is derived from it. Bridges are numbered along the chain shown (N, C = ends). [ ]: non-standard residue; d: D form. Orn = NCCC[C@H](N)C(=O)O; Mpa = O=C(O)CCS
Legend:
[1] = biological target: N-glycosylase/DNA lyase (Homo sapiens) (UniProt O15527); conditions: Compound Concentration 10.0 uM, Hit No;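 further: OGG1 cleavage of a quenched duplex DNA oligonucleotide, coupled to APE1 for strand incision, read as fluorescence at 594 nm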
Description: Inhibition of OGG1 by quantifying inhibition of OGG1-mediated cleavage and dissociation of quenched duplex DNA oligonucleotides, measured as fluorescence at 594 nm. To generate a functional strand incision and increase turn-over this assay is coupled to APE1.

[2] = biological target: Endonuclease 8-like 1 (Homo sapiens) (UniProt Q96FI4); conditions: Hit No;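 further: fluorescence at 594 nm from quenched duplex DNA oligonucleotides released by NEIL1 cleavage and strand separation, reported as reduction of this enzyme activity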
Sequence of Endonuclease 8-like 1 (Homo sapiens) (Q96FI4 whole entry): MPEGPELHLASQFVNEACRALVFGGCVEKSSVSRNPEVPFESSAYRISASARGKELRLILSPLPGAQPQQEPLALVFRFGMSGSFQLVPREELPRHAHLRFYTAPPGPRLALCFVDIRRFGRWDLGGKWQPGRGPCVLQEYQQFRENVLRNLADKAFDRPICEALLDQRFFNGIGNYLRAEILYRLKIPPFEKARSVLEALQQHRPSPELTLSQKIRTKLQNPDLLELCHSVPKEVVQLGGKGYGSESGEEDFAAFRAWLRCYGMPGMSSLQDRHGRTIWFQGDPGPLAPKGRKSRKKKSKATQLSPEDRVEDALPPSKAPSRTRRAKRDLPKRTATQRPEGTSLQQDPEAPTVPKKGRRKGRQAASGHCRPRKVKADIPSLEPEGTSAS
Description: Inhibition of NEIL1 by quantifying inhibition of NEIL1-mediated cleavage and dissociation of quenched duplex DNA oligonucleotides, measured as fluorescence at 594 nm.

[3] = biological target: T1, Endonuclease 8-like 2 (Homo sapiens) (UniProt Q969S2); conditions: Compound Concentration 10.0 uM, Hit No;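 further: fluorescence at 594 nm reports NEIL2 cutting and release of a quenched double-stranded DNA oligo substrate, reduced signal read as inhibition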
T1 sequence (whole entry): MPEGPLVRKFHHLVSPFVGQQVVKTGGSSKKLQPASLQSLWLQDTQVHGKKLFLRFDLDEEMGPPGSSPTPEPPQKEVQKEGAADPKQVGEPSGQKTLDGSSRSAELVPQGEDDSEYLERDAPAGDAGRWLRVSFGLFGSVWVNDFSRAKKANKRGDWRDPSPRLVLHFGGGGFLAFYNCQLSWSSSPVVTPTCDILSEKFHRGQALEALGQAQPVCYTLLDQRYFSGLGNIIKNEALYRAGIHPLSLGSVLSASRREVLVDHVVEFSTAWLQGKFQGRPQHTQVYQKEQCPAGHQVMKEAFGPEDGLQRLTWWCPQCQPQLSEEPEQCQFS
Description: Inhibition of NEIL2 by quantifying inhibition of NEIL2-mediated cleavage and dissociation of quenched duplex DNA oligonucleotides, measured as fluorescence at 594 nm.

[4] = biological target: G/T mismatch-specific thymine DNA glycosylase (Homo sapiens) (UniProt Q13569); conditions: Hit No;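 further: human TDG cleavage of quenched duplex DNA oligonucleotides coupled to APE1, strand release read as fluorescence at 594 nm, inhibition of TDG activity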
Sequence of G/T mismatch-specific thymine DNA glycosylase (Homo sapiens) (Q13569 whole entry, the tested form may be a part): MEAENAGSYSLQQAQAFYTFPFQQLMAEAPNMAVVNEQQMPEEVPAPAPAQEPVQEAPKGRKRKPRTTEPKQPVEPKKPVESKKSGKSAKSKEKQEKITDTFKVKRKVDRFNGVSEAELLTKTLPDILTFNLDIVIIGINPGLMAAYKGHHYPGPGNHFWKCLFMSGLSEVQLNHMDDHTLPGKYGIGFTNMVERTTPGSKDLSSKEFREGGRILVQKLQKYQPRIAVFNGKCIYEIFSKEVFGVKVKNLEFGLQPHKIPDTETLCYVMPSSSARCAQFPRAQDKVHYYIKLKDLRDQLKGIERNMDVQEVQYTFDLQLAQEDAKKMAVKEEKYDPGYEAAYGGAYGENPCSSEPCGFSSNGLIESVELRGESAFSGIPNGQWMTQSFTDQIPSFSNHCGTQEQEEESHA
Description: Inhibition of TDG by quantifying inhibition of TDG-mediated cleavage and dissociation of quenched duplex DNA oligonucleotides, measured as fluorescence at 594 nm. To generate a functional strand incision and increase turn-over this assay is coupled to APE1.

[5] = biological target: Methyl-CpG-binding domain protein 4 (Homo sapiens) (UniProt O95243); conditions: Hit No;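 further: MBD4 activity read as fluorescence at 594 nm from cleavage and release of a quenched duplex DNA oligonucleotide, with APE1 coupled to incise the strand and raise turnover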
Sequence of Methyl-CpG-binding domain protein 4 (Homo sapiens) (O95243 whole entry, the tested form may be a part): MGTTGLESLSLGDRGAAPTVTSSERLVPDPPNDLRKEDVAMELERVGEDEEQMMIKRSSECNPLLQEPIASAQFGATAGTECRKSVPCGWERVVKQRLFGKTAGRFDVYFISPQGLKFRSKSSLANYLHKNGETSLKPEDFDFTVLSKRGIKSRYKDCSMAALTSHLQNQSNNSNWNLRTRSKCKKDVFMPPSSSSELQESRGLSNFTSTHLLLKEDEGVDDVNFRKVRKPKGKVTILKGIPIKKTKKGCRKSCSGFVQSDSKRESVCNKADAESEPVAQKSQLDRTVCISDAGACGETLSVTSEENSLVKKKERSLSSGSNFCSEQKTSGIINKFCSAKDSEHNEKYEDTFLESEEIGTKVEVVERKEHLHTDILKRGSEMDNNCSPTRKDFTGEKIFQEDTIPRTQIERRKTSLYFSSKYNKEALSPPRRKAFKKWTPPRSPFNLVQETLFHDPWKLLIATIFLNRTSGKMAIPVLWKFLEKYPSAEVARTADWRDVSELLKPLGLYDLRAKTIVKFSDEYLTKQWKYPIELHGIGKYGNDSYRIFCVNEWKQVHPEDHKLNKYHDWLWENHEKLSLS
Description: Inhibition of MBD4 by quantifying inhibition of MBD4-mediated cleavage and dissociation of quenched duplex DNA oligonucleotides, measured as fluorescence at 594 nm. To generate a functional strand incision and increase turn-over this assay is coupled to APE1.

[6] = biological target: T2, Single-strand selective monofunctional uracil DNA glycosylase (Homo sapiens) (UniProt Q53HV7); conditions: Compound Concentration 10.0 uM, Hit No;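 further: enzymatic SMUG1 assay coupled with APE1, reading fluorescence at 594 nm released when a quenched double-stranded DNA oligonucleotide substrate is cleaved and separated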
T2 sequence (whole entry): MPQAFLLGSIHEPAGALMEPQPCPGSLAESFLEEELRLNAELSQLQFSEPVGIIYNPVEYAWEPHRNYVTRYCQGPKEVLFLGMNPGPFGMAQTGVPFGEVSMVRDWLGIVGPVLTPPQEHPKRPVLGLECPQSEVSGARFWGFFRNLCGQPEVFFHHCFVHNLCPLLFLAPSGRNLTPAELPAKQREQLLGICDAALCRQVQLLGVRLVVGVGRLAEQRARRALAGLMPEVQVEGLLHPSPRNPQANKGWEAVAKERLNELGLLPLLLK
Description: Inhibition of SMUG1 by quantifying inhibition of SMUG1-mediated cleavage and dissociation of quenched duplex DNA oligonucleotides, measured as fluorescence at 594 nm. To generate a functional strand incision and increase turn-over this assay is coupled to APE1.

[7] = biological target: Uracil-DNA glycosylase (Homo sapiens) (UniProt P13051); conditions: Hit No;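 further: UNG excision on a quenched double-stranded DNA oligo probe, with APE1 added for strand incision and turnover, read as fluorescence at 594 nm as strands separate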
Sequence of Uracil-DNA glycosylase (Homo sapiens) (P13051 whole entry): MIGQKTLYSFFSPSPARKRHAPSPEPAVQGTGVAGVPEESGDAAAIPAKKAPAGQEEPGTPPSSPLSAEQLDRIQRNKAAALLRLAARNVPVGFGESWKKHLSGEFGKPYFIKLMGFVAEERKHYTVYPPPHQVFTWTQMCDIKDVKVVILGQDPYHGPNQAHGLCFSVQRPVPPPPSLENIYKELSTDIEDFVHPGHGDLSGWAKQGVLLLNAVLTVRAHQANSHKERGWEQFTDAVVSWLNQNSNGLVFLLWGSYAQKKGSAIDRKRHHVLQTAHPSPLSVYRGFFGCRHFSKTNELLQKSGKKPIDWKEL
Description: Inhibition of UNG by quantifying inhibition of UNG-mediated cleavage and dissociation of quenched duplex DNA oligonucleotides, measured as fluorescence at 594 nm. To generate a functional strand incision and increase turn-over this assay is coupled to APE1.

Sequence of N-glycosylase/DNA lyase (Homo sapiens) (O15527 whole entry): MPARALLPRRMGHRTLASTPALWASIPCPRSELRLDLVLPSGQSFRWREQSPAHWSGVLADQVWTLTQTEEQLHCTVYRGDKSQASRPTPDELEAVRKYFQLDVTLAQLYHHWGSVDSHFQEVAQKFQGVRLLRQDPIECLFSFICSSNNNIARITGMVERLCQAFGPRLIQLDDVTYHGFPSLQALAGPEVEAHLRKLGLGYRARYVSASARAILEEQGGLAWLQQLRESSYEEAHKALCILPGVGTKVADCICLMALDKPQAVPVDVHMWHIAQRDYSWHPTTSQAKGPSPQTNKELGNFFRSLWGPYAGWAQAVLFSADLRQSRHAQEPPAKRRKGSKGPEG

Structure (SMILES) | inhibition [1] | inhibition ([2]; Compound Concentration 10.0 uM) | inhibition [3] | inhibition ([4]; Compound Concentration 10.0 uM) | inhibition ([5]; Compound Concentration 10.0 uM) | inhibition [6] | inhibition ([7]; Compound Concentration 10.0 uM) | inhibition ([5]; Compound Concentration 1.0 uM) | inhibition ([2]; Compound Concentration 1.0 uM) | inhibition ([7]; Compound Concentration 1.0 uM) | inhibition ([4]; Compound Concentration 1.0 uM)
c1cc(OCCCN2CCCCC2)ccc1CN1CCCCC1 | -9.64% | -2.58% | -0.733% | 13.9% |  |  |  |  |  |  | 
CC(C)COc1ccc(CNC(=O)N(Cc2ccc(F)cc2)C2CCN(C)CC2)cc1 | -7.83% | 2.32% | 8% | -0.163% |  |  |  |  |  |  | 
C[C@@H]1CN(Cc2ccc(F)cc2)CCN1C(=O)COc1ccc(Cl)cc1NC(N)=O |  | 8.25% | 1.76% | -7.21% | -0.315% | -3.18% |  |  |  |  | 
CCOc1ccc(C[C@H]2NC(=O)CCSSC[C@@H](C(=O)N3CCC[C@H]3C(=O)N[C@@H](CCCN)C(=O)NCC(N)=O)NC(=O)[C@H](CC(N)=O)NC(=O)[C@H]([C@@H](C)O)NC(=O)[C@H]([C@@H](C)CC)NC2=O)cc1 ([Mpa][dY](Et)ITNCP[Orn]G-NH2; disulfide 1-6) |  | 4.99% | 9% | -5.89% |  | -2.21% | -8.02% |  |  |  | 
CCOc1ccn(-c2ccc(F)cc2)c(=O)c1C(=O)Nc1ccc(Oc2ccnc(N)c2Cl)c(F)c1 | -7.89% | 6.08% |  | 59.2% |  | 30.4% | 6.57% |  |  |  | 
C=CC(=O)N1CCC([C@@H]2CCNc3c(C(N)=O)c(-c4ccc(Oc5ccccc5)cc4)nn32)CC1 | 6.47% | -8.45% |  | 49.9% |  | 20.1% | -0.527% |  |  |  | 
Cc1c(C(=O)O)cc(-c2ccc(C3CCNCC3)cc2)c2ccc(-c3ccc(C(F)(F)F)cc3)cc12 | 11.4% | -6.8% | -4.83% | 44.3% |  | 4.5% | 3.66% |  |  |  | 
NC(=O)[C@@H]1CCCN1C(=O)[C@H](Cc1c[nH]cn1)NC(=O)[C@@H]1CCC(=O)N1 | -2.75% | -9.1% | 12.7% | 10.8% | -3.57% | -2.65% |  |  |  |  | 
Nc1ccc(C(=O)Nc2cccc(-c3nc(N4CCOCC4)c4oc5ncccc5c4n3)c2)cn1 | 23% | -5.94% |  | 7.37% | -6.46% | 9.56% | 2.33% |  |  |  | 
O=C(c1ccc(F)c(F)c1Nc1ccc(I)cc1F)N1CC(O)([C@@H]2CCCCN2)C1 |  |  |  | 45% | 21.9% | 13.1% | 7.28% |  |  |  | 
CCn1c(CNC(=O)c2nc(Cl)cnc2N)[n+](CC)c2ccc(C(=O)N(C)CCN(C)C)cc21 | 14.2% | -5.14% |  | 96.8% | 53.4% | 12.7% | 2.92% |  |  |  | 
N#Cc1cccc(C(=O)Nc2cc(-c3ccccc3)nn2-c2ccccc2)c1 | -5.93% | -1.98% | 0.764% | -2.1% |  | -0.276% |  |  |  |  | 
CN1C2CCC1CC(OC(c1ccc(F)cc1)c1ccc(F)cc1)C2 (stereo not drawn) |  | 1.28% | -4.23% |  |  |  | -4.51% |  |  |  | 
Cc1nc2sccn2c(=O)c1CCN1CCC(=C(c2ccc(F)cc2)c2ccc(F)cc2)CC1 | 4.32% | -4.65% | 7.75% | 20.8% |  | -6.91% |  |  |  |  | 
Cc1cc2c(-c3ccco3)cnc(N[C@H]3CCN(C)C[C@@H]3C(=O)NC3CCCCC3)c2[nH]c1=O |  | 0.316% | -2.27% | 22.3% | 29.8% |  | -1.62% |  |  |  | 
O=C(N[C@@H]1CC[C@@H](c2cccc(F)c2F)CN(CC(F)(F)F)C1=O)N1CCC(n2c(=O)[nH]c3ncccc32)CC1 | -8.48% | -5.1% | 4.76% | 0.452% |  |  |  |  |  |  | 
Cc1nc(-c2ccc(-c3ccc(C(=O)N4CCc5cc6c(cc54)C4(CCN(C)CC4)CO6)cc3)c(C)c2)no1 |  | -7.62% | -3.48% | -5.26% | 2.3% |  |  |  |  |  | 
O=S(=O)(c1ccccc1)c1cnc2c(N3CCNCC3)cccc2c1 | -2.8% | 6.47% | -5.97% |  |  | -2.7% | -8.69% |  |  |  | 
Clc1ccc(CCCOCCCN2CCCCC2)cc1 |  | -3.47% | -5.97% | 8.64% |  | -0.857% | -8.48% |  |  |  | 
COc1cccc(OC)c1-c1cc(C(=O)NC2(C(=O)O)C3CC4CC(C3)CC2C4)nn1-c1ccc(C(=O)N(C)CCCN(C)C)cc1C(C)C (stereo not drawn) | 3.59% | 2.02% | 7.25% | 18.3% | 10.5% |  | -7.25% |  |  |  | 
Cn1c(-c2csc(C3CCN(CC4=NC5N=CC=CC5N4)CC3)n2)nc2ccccc21 (stereo not drawn) | -1.15% | -1.5% | -5.34% | 20.6% | -3.01% |  |  |  |  |  | 
Cc1ccc(NC(=O)Nc2cc(C(F)(F)F)ccc2F)cc1Nc1ccc2c(c1)NC(=O)/C2=C\c1ccc[nH]1 |  |  |  |  |  |  |  | -5.4% | -7.79% | -3.3% | 24.1%
O=C(Cc1ccc(Cl)c(Cl)c1)N1CCCC[C@H]1CN1CCCC1 | 2.1% | -3.91% | -2.48% |  |  | -3.13% | -9.61% |  |  |  | 
COc1cc(N2CCC(O)CC2)ccc1Nc1cc(Nc2ccccc2S(=O)(=O)C(C)C)c2cc[nH]c2n1 | 21.1% |  |  | 52.6% | 13.6% | 4.55% | 3.96% |  |  |  | 
Cc1ccc(-c2ccc3c(ccc4sc5c(c43)NCC(C)NC5=O)n2)cn1 (stereo not drawn) | -7.16% | -2.5% |  | 25.8% |  | 6.89% |  |  |  |  | 
N=C(N)SCCc1c[nH]cn1 | -6.9% | -8.06% |  | -1.52% | 11.4% | -7.4% |  |  |  |  | 
Cc1ccc2c(c1)c1c(n2CCc2ccc(C)nc2)CCN(C)C1 |  | -8.95% | 3.01% | -5.76% |  | -3.57% |  |  |  |  | 
N#Cc1ccc2[nH]cc(CCCCN3CCN(c4ccc5oc(C(N)=O)cc5c4)CC3)c2c1 | -2.53% | 14.2% |  | -5.72% |  | 10.3% | -7.29% |  |  |  | 
CCCCCCCCCCCCCCCCOC[C@H](COP(=O)([O-])OCC[N+](C)(C)C)OC(C)=O | 31.6% | -4.5% | -9.72% |  |  |  | -5.53% |  |  |  | 
CC[C@H]1OC(=O)[C@H](C)[C@@H](O[C@H]2C[C@@](C)(OC)[C@@H](O)[C@H](C)O2)[C@H](C)[C@@H](O[C@@H]2O[C@H](C)C[C@H](N(C)C)[C@H]2O)[C@@]2(C)CC(C)=C(O2)[C@H](C)[C@@H](O)[C@]1(C)O |  | 3.06% | 4.76% | 0.145% |  | -6.48% |  |  |  |  | 

— ChEMBL document CHEMBL5665443, “Enzyme Inhibitor Single Concentration assay results for EUbOPEN Chemogenomics Library” (2024)
